Laboratory results published in patent publication US11116726B2, “Echinomycin formulation, method of making and method of use thereof” (CHILDREN'S RESEARCH INSTITUTE, CHILDREN'S NATIONAL MEDICAL …, priority 2015, dated 2021).

Experiments:
MCF7 cells = test: MTT cell viability assay, MCF7; format: cell-based, human; conditions: 48 hrs, compared with SUM159
Method: (§1) FIG. 9. Echinomycin reduced the number of live breast cancer cells in vitro. Breast cancer cells with high (SUM 159) or low (MCF7) levels of HIF-1α were treated with various concentrations of echinomycin in vitro. The correlation between echinomycin concentration and relative proportions of surviving cells after co-culturing with echinomycin is shown. SUM 159 cells with high HIF-1α are more sensitive to echinomycin than MCF7, which express less HIF-1α.
(§2) To better understand the importance of high HIF-1α expression in breast cancer cells, the ability of echinomycin to reduce survival of breast cancer cells was tested in two breast cancer cell lines, MCF7 and SUM 159. More specifically, MCF7 and SUM 159 were treated with different concentrations of echinomycin for 48 hrs, followed by MTT assays to measure cell viability thereafter.

human ETP-ALL-1 cells = test: ETP-ALL xenograft model, human CD45+ cells in blood by FACS; format: in vivo, NSG mice; conditions: echinomycin in PBS 0.1 mg/kg x15 doses; Lipo-EM 0.35 mg/kg x10 doses; blood days 34, 50, 65
Method: FIG. 8. Liposomal echinomycin eliminates human ETP-ALL cells in a xenograft mouse model. (Panel A) Dosing regimen of liposomal echinomycin treatment for ETP-ALL humanized mice for data in panel B. Day 0 indicates day of transplantation with human ETP-ALL-1 cells. Green arrows represent one individual liposomal echinomycin injection (0.35 mg/kg/injection via i.v.). Red arrows indicate blood tests. (Panel B) NSG mice with 1.3 Gys irradiated were given i.v. injection of 1×10^6 human ETP-ALL-1 cells. Human CD45^+ cells in PBMC of recipients were detected by FACS analysis at day 34 after transplantation. The percentage of human CD45^+ in PBMC of recipient mice before treatment (Day 34) and after treatment (Day 42, 48, 56, and 64) of mice (vehicle and liposomal echinomycin treatment) was analyzed by FACS analysis. […] The percentage of human CD45^+ in PBMC of recipients after echinomycin treatment (Day 34, 50, and 65) of mice was analyzed by FACS analysis.
To test whether administration of liposomal echinomycin (Lipo-EM) could eliminate human ETP-ALL cells in vivo, Lipo-EM was administered to xenografted ETP-ALL NSG mice according to the dosing schedule outlined in FIG. 8, panel A. Briefly, 1×10^6 ETP ALL-1 cells were transplanted via i.v. injection into 1.3 Gys irradiated NSG mice. […] The percentage of human ETP ALL-1 cells was monitored after treatment. […]

[1] = Liposomal echinomycin toxicity in mice (body weight, survival); format: in vivo, NSG mice; conditions: 1 mg/kg single i.v.
Method: FIG. 4. Comparison of toxicity and efficacy for liposomal vs. free echinomycin. (Panel A) Body weight change in female NSG mice receiving a therapeutic cycle of liposomal echinomycin, PBS echinomycin (20% DMSO in PBS), or equivalent dosage of empty liposomal vehicle. Mice were treated with 250 μg/kg of liposomal (n=7) or free (n=7) echinomycin, or vehicle equivalent (n=4), by i.v. once every other day for a total of 3 doses). (Panel B) Survival of NSG mice administered single i.v. injection of 1 mg/kg liposomal or free echinomycin, or equivalent dosage of empty liposomal vehicle.
To test the toxicity of liposomal echinomycin in mice, a therapeutic cycle of echinomycin was administered at a dose of 250 μg/kg, (liposomal-formulated, non-liposomal-formulated, or equivalent dosage of empty liposomal vehicle) by i.v. injection, every other day for a total of 3 doses. Body weights of the mice were monitored throughout this period.

SUM159 cells = test: MTT cell viability assay, SUM 159; format: cell-based; conditions: Homo sapiens, 48 hrs, read-out: IC50 (number of live cells)
Method: as §1, §2

[2] = system: SUM159 breast cancer cells; test: SUM159 breast cancer xenograft efficacy; format: in vivo, NSG mice; conditions: 0.1 mg/kg i.v. once every 3 days, 6 doses
Method: FIG. 11. Therapeutic effect of liposomal echinomycin on breast cancer in vivo. (Panel A) Female NSG mice were xenografted with human SUM159 breast cancer cells and treated with free echinomycin or vehicle (n=10 per group). Mice received 0.1 mg/kg of free echinomycin or vehicle via i.v. injection once every 3 days starting on day 28 for a total of 6 doses. Growth kinetics of SUM159 are shown. (Panel B) Female NSG mice were xenografted with SUM159 breast cancer cells and treated with liposomal echinomycin or vehicle (n=5 per group). The growth kinetics of SUM159 in recipient mice treated with vehicle and liposomal echinomycin are shown. Mice received 0.35 mg/kg of liposomal echinomycin or vehicle by i.v. injection on days 9, 11, 13, 25 and 27. Average tumor volume was recorded throughout the experiment. Error bars represent ±SEM. Individual treatments and dosage are denoted by asterisks. (Panel C) Mice were euthanized, and tumors were dissected and photographed. […] Weight is expressed as average weight ±s.d., P value was calculated by t test.
To test the therapeutic efficacy of free echinomycin (in PBS), Lipo-EM, and vehicle in breast cancer cells in vivo, SUM159 cells were xenografted in the mammary fat pad of NOD-SCID mice. […] In addition, Growth kinetics of the transplanted tumors were measured by volume (FIG. 11, panel B) and by weight (FIG. 11, panel C and panel D). […]

[3] = Intravenous tolerability / LD50 in mice; conditions: mouse, in vivo
[4] = Plasma pharmacokinetics by mass spectrometry after single i.v. injection; format: in vivo, mice; conditions: 0.1 mg/kg single i.v.
Method: FIG. 5. Comparison of pharmacokinetics for liposomal vs. free echinomycin. Serum plasma levels of echinomycin detected by MS following single dose i.v. administration of 0.1 mg/kg liposomal echinomycin or free echinomycin
PEG shields liposomes from rapid uptake by the RES and provides steric stabilization to the liposome particles. To measure the prolonged circulation of liposomal echinomycin in the bloodstream compared to free echinomycin, the pharmacokinetics of both formulations were evaluated by detecting echinomycin levels in the plasma by mass spectrometry following single i.v. injections of 0.1 mg/kg of liposomal echinomycin or free echinomycin in mice (FIG. 5).

[5] = Echinomycin concentration in SUM 159 breast tumor tissue after single i.v. injection; format: in vivo, NSG mice; conditions: 0.1 mg/kg single i.v., SUM 159 tumor
Method: FIG. 6. Accumulation of Echinomycin in tumor. Concentration of echinomycin in breast tumor SUM 159 following single dose i.v. injection (0.1 mg/kg) of liposomal and conventionally formulated echinomycin. n=3/time-point.
In contrast, administration of liposomal echinomycin (Lipo-EM) at the same dose of 0.1 mg/kg achieved a tissue concentration >5 ng/g, which was prolonged for more than 10 hrs following administration (FIG. 6). More importantly, peak drug levels in the liposomal echinomycin-treated group were approximately 6-fold higher than those treated with free echinomycin.

[6] = cited from earlier work

Structure (SMILES): CS[C@H]1SC[C@H]2C(=O)N(C)[C@@H](C(C)C)C(=O)OC[C@@H](NC(=O)c3cnc4ccccc4n3)C(=O)N[C@@H](C)C(=O)N(C)[C@@H]1C(=O)N(C)[C@@H](C(C)C)C(=O)OC[C@@H](NC(=O)c1cnc3ccccc3n1)C(=O)N[C@@H](C)C(=O)N2C [free echinomycin, Echinomycin]
- sensitivity to echinomycin (MCF7 cells): less sensitive
- growth of ETP-ALL-1 cells in recipients (comparison study) (human ETP-ALL-1 cells): did inhibit the growth rate of ETP-ALL-1 cells
- survival (in words) [1]: died within a week
- IC50 (SUM159 cells): 1 nM
- tumor size vs vehicle control [2]: no significant differences in tumor size
- LD50 [3]: 0.629 mg/kg
- time point at which plasma concentration >1 ng/ml is achieved (only) [4]: 15 min
- time point at which tumor concentration >5 ng/g is achieved (only) [5]: 2 h
- solubility in ethanol, alkalis, ketones, acetic acid and chloroform [6]: soluble
- solubility in water ([6]; water): insoluble
